Read-outs that look alike come from different tables or passages of the source.
Experiments:
[1] = system: NF-κB-mediated TNFα synthesis in human monocytes; assay: cells; type: cell-based; conditions: Monocyte, 100 nM PMA, read-out: IC50 value after PMA stimulus (TNFα synthesis)
[2] = system: human tissue factor promoter (luciferase) in RAW-A3 cells (RAW 264.7 transfectant); assay: Inhibition of NF-κB-mediated expression of the human tissue factor gene: promoter-luciferase reporter in RAW-A3 monocyte cells; type: cell-based; conditions: read-out: IC50 (tissue factor promoter-driven luciferase activity)
Method: Inhibition of the NF-κB-mediated Gene Expression of the Human Tissue Factor Gene in Monocytes
Therefore, for the further detection of the inhibition of the NFκB-mediated gene expression by the inhibitors according to the invention, the following biological test was carried out:
The promoter fragment of the human tissue factor gene which contains the NF-κB binding sequence was cloned with oligonucleotide primers of the sequence 5′-TCCCTCGAGATCTCCCAGAGGCAAACTGCCAGAT-3′ (5′ primer of position −925) and 5′-TCCTCGAGCCATGGCTACCAGTTGGGCGGCGAGATC-3′ (3′ primer containing the ATG start codon of the coding sequence of the tissue factor gene) by means of the polymerase chain reaction (PCR) and fused by means of an NcoI/XhoI cloning with the luciferase start codon in the plasmid pGL3-basic vector (Promega Corp. 2800 Woods Hollow Road, Madison, Wis. 53711-5399 USA). […]
After a further 6 hours, the culture supernatant is aspirated and the cells are processed for the measurement of the luciferase activity according to the procedure of the “Luciferase Assay System” (Technical Bulletin of Promega, 2800 Woods Hollow Road, Madison, Wis. 53711-5399 USA. Products E4030, E1483, E1501). The cell lyzate is incubated with the luciferase assay substrate and measured in a luminometer to measure the emitted light. […]

[3] = system: NF-κB-mediated TNFα synthesis in human monocytes; assay: cells; type: cell-based; conditions: Monocyte, LPS 125 ng/ml, 18 hours, TNFα ELISA, read-out: IC50 (inhibition of NF-κB-mediated TNFα synthesis)
[4] = system: ELAM-1 expression in HUVECs; assay: TNF-induced expression of ELAM-1 on HUVEC surface (FACS, anti-ELAM-1 antibody); type: cell-based, human
Method: Inhibition of the NF-κB-mediated Gene Expression of the Adhesion Protein ELAM-1 to Human Umbilical Cord Endothelial Cells (HUVEC)
(§1) The influence of compound I-3-R on the expression of ELAM-1 was checked in two different test batches. In one functional batch, the adhesion of human neutrophils to TNF-α-stimulated HUVEC cells was measured. The expression of ELAM-1 on the surface of the HUVECs was determined using a fluorescence-labeled ELAM-1-specific monoclonal antibody by means of FACS (cell sorting) analysis.
Experimental Procedure Quantitative Measurement of the TNF-induced Expression of ELAM-1 in HUVECs
Umbilical cord endothelial cells (HUVEC) were cultured as described above and incubated for 4 hours in the presence or absence of test substances in the presence or absence of 10 ng/ml of TNF. […] After centrifuging and washing again, the cells were taken up in 1 ml of PBS plus 1% BSA and measured at 488 nm in a flow cytometer (Becton and Dickinson). The intensity of the fluorescence as a function of bound anti-ELAM-1 antibody per cell is measured by this process. 5000 cells were measured for each value.

[5] = system: adhesion of human neutrophils to TNF-α-stimulated HUVEC cells; assay: ELAM-dependent adhesion of human neutrophils to TNF-α-stimulated HUVEC; type: cell-based
Method: as §1
Experimental Procedure: ELAM-dependent Neutrophil Adhesion to Endothial Cells
The neutrophils were isolated from human blood (100 ml). To this end, 3.5 ml of Polyprep was introduced into a centrifuge bucket and carefully coated with 5 ml of blood. After centrifuging at 2100 min^−1 for 30 minutes, the neutrophil band in the center of the centrifuge bucket was aspirated. After 1:2 dilutions in Clonetics endothelial cell basal medium (EBM), the neutrophils were again centrifuged at 1000 min^−1 for 20 minutes and then made up to a cell concentration of 10^6 cells/ml.
The umbilical cord endothelial cells were grown to confluence in EBM+10% FCS in 96 well microtiter plates. At the start of the experiment, the medium was replaced by EBM without FCS and the experimental substances then employed. After 20 minutes, the HUVECs were stimulated using 10 nM TNF-α. […] The fluorescence of the adherent neutrophils was then measured in a fluorescence photometer.

[6] = system: interleukin-2 promoter (luciferase) in SS-1 cell line; assay: Inhibition of interleukin-2 synthesis: interleukin-2 promoter-luciferase reporter cell line (SS-1), PMA/ionomycin induced; type: cell-based; conditions: IL-2 promoter reporter cell line, PMA 5 ng/ml + ionomycin, 24 hours; read-out: IC50 (inhibition of induction of luciferase activity to 50%)
From the text: Inhibition of Interleukin-2 Synthesis
For the testing of the inhibitory action of cyclopentabenzene derivatives on interleukin-2 synthesis, a receptor gene cell line was used which contains the interleukin-2 promoter coupled to the luciferase gene. The promoter contains the DNA sequence from −480 to +4. The vector employed is pGL3; the starting cell line in which the total construct has been stably transfected is SS-1. The culture medium for this cell line was RPMI 1640 (Gibco, Rockille). It additionally contained: 100 μg/ml of streptomycin, 100 U/ml of penicillin, 2 mM L-glutamine, 10% heat-inactivated FBS and 800 μg/ml of G418 sulfate.
The reporter gene test cell line was inoculated into 96-well plates to 1×10^6 cells per well in Phenol Red-free RPMI with the additives and incubated at 37° C. in an atmosphere of 5% CO2, 95% air with phorbol 12-myristate 13-acetate (PMA; 5 ng/ml) and ionomycin ([…]; 0.4 μg/ml) for 24 hours. The test substances were added simultaneously with PMA.
For the generation of the luminescence, LucLite™ solution (Packard, Meriden, Conn.) was added to a concentration of 100 μl/well and the luminescence was measured in a luminometer (Luminoskan, Labsystems) immediately after addition.

Row | Compound | IC50 [1] [nM] | IC50 ([2]; RAW264.7, RAW-A3 cells, induction with 15% serum, 6 hours) [nM] | IC50 [3] [nM] | Completeness of inhibition of ELAM-1 expression ([4]; HUVEC, 10 ng/ml TNF, 4 hours, FACS, all concentrations investigated) | Inhibition of expression of ELAM-1 on the cell surface (maximum inhibition) ([4]; TNF-α-stimulated HUVECs, inhibited to 50%) [%] | Inhibition of adhesion of neutrophils to TNF-α-stimulated HUVECs ([5]; 10 nM TNF-α, 4 hours, inhibited to 50%) [%] | Concentration at which maximum inhibition of cell adhesion was determined ([5]; neutrophil adhesion to TNF-α-stimulated HUVECs) [nM] | IC50 [6] [nM] | IC50 ([2]; RAW264.7, 6 h) [nM]
1 | COc1ccc([C@@]23Oc4cc(OC)cc(OC)c4[C@]2(O)[C@@H](O)C[C@H]3c2ccccc2)cc1 (racemic) [Example I-1, (1α,3α,3aα,8bα)-3,3a-dihydro-6,8-dimethoxy-3a-(4-methoxyphenyl)-3-phenyl-1H-cyclopenta[b]benzofuran-1,8b(2H)-diol] | 100 | 20000 | 500 |  |  |  |  |  | 
2 | COc1ccc([C@@]23Oc4cc(OC)cc(OC)c4[C@]2(O)[C@H](O)C[C@H]3c2ccccc2)cc1 (racemic) [Example I-3-R] |  |  | 100 | completely inhibited at none of the concentrations investigated | 50 | 50 | 50 | 5 to 10 | 
3 | COC(=O)CN[C@@H]1C[C@@H](c2ccccc2)[C@]2(c3ccc(OC)cc3)Oc3cc(OC)cc(OC)c3[C@]12O [Example I-5, methyl (1α,3β,3aβ,8bβ)-N-(3,3a-dihydro-6,8-dimethoxy-3a-(4-methoxyphenyl)-3-phenyl-cyclopenta[b]benzofuran-8b(2H)-ol-1-yl)-2-aminoacetate] | 90 |  | 500 |  |  |  |  |  | 2000
